Earlier results on three compounds are cited in patent US20110015587A1, “Irrigation Device and Method Using Same” (priority 2009, published 2011).

Series [1] deals with bacteria. Particulars: 2.6 ppm, 5 minutes.
The subject of another series is Escherichia coli. Particulars: Escherichia coli exposed to hypochlorous acid.
For series [2], the system named is gram-negative and gram-positive bacteria, fungi and yeast including MRSA, Pseudomanas aeruginosa, VRE.
Series [3] has as its system bacteria. As to conditions: very low concentrations.
The subject of series [4] is cellular components of wound healing.

For `OCl` [Hypochlorous acid], in the series with bacteria [1], the growth inhibition was 100%. In addition, the “time to loss of viability” value with Escherichia coli is given as “less than 100 ms”.

For Polyaminopropyl biguanide [PAPB], the “activity against gram-negative and gram-positive bacteria, fungi and yeast” value in series [2] is “active”. The “toxicity to higher organisms such as human cells” value with human cells is “very low toxicity”. Also, the bactericidal concentration in the series on bacteria [3] is 10 mg/L.

For povidone-iodine, the “cytotoxicity to the cellular components of wound healing” value in series [4] is recorded as “cytotoxic”.
